Measurements: patent US9474730B2, “Methods and compositions for use with K-ras mediated disorders” (Board of Regents of the University of Texas System, priority 2012, dated 2016)

Assays:
[1] = tested on: MAPK activation (pERK) in Hec1A cells; settings: 48 h
Experimental: (§1) SDS-PAGE and Western blotting with the specified antibody were performed using 20 μg of each whole cell lysate/P100 fraction and volumes of S100 equal to that of the corresponding P100. Signal was detected by enhanced chemiluminescence (SuperSignal; Pierce, Thermo Fisher Scientific, Rockford, Ill.) and imaged by FluorChemQ (Alpha Inotech, San Leandro, Calif., USA). Quantification of intensities was performed using FluorChemQ software.

[2] = target: T1, GFP-CTH (mGFP-tagged C-terminal region of H-ras) in MDCK cells (Homo sapiens, UniProt P01112); experiment: High throughput cell-based screen: plasma membrane localization of GFP-CTH; design: species or system canine; settings: positive control
T1 construct: hypervariable region of H-ras (amino acids 166-189) cloned onto the carboxy terminus of monomeric GFP; expressed in transfected cells

[3] = target: T2, GFP-CTK (mGFP-tagged C-terminal region of K-ras) in MDCK cells (Homo sapiens, UniProt P01116); experiment: High throughput cell-based screen: plasma membrane localization of GFP-CTK; design: species or system canine; settings: positive control, 250 ng/mL UCN-01, MDCK
T2 construct: hypervariable region of K-ras (amino acids 166-188) cloned onto the carboxy terminus of GFP; expressed in transfected cells
Experimental: FIG. 1: Illustrates results of a high throughput cell-based screening of chemical libraries: Madin-Darby Canine Kidney epithelial cells (MDCK) expressing monomeric green fluorescent protein (mGFP)-tagged C-terminal region of K- or H-ras (GFP-CTK and GFP-CTH) were seeded in 96 well plates and treated with drug libraries for 48 h. Cells were then fixed with paraformaldehyde and imaged by BD Pathway Imager in confocal mode; shown are representative images of cells treated with vehicle, […], and 10 μM FTI-276; wherein experimentation was performed in accordance with principles described herein;
In accordance with some embodiments described herein, wild type MDCK cells or MDCK cells expressing monomeric green fluorescent protein (mGFP)-tagged C-terminal region of K-ras or H-ras (GFP-CTK and GFP-CTH respectively) were seeded in triplicate in 96 well plates (Matrical) at a density of 30,000 cells/well and incubated for 24 h at 37° C. Compounds were individually added to test cells at a concentration of 4 μg/mL (concentration of DMSO 1%) and incubated for a further 48 h.
Cells were then fixed with 4% paraformaldehyde and stored in PBS at 4° C. until imaged. Plates were imaged using a BD Pathway High-Throughput Bioimager. Images were acquired by a 3×3 montage with 20× objective lens using GFP-confocal mode. […]

[4] = target: T3, GFP-K-rasG12V in MDCK or BHK cells (Homo sapiens, UniProt P01116, G12V); experiment: Cellular fractionation (P100/S100) with quantitative Western blotting, GFP-K-rasG12V; format: cell-based, canine (MDCK), hamster (BHK); settings: 48 hours
T3 construct: MDCK and BHK cells expressing GFP-tagged full length constitutively active Ras (G12V) proteins; expressed in transfected cells
Experimental: Following treatment, membrane (P100) and soluble (S100) protein fractions were prepared and analyzed by quantitative Western blotting.
(§2) Preparation of whole-cell lysates: cells were lysed in Buffer B (50 mM Tris [pH 7.5], 75 mM NaCl, 25 mM NaF, 5 mM MgCl2, 5 mM EGTA, 1 mM dithiothreitol, 100 μM NaVO4, 1% Nonidet P-40 plus protease inhibitors). Cellular fractionation: cells were incubated in Buffer A (10 mm Tris-HCl, pH 7.5, 25 mm NaF, 5 mm MgCl2, 1 mm EGTA, 1 mm dithiothreitol, 100 μm NaVO4 plus protease inhibitors) for 30 minutes on ice and lysed by passing through a 27 G needle 30 times. The post nuclear supernatant was centrifuged at 100,000 g for 30 minutes and the membrane pellet was resuspended in Buffer A containing 1% Triton X-100.
as §1

[5] = tested on: BHK cells stably expressing K-rasG12V; experiment: Signaling downstream of oncogenic K-ras by quantitative Western blotting; format: cell-based, hamster; settings: other Ca2+ channel blockers and ionomycin
Experimental: FIG. 5: Illustrates that fendiline HCl inhibits Raf kinase activity and signaling downstream of oncogenic K-ras: BHK cells stably expressing K-rasG12V were treated with vehicle or fendiline HCl (6 μg/mL) for 48 h. (A) Raf kinase activity in membrane fractions prepared from the cells was measured in a coupled […] kinase assay. Data is shown as mean±SEM from 3 independent experiments. (B) ppMEK and ppERK in soluble protein fraction and pAkt levels in membrane protein fraction were measured by quantitative Western blotting. Actin and Akt were used as loading controls for soluble and membrane fractions, respectively. A representative blots are shown. Data is shown as mean±SEM from 3-4 independent experiments. Statistical significance was calculated using one way ANOVA and Student's T-test. (*=p<0.05), wherein experimentation was performed in accordance with principles described herein;
as §2
Quantification of intensities was performed using FluorChemQ software.

[6] = tested on: SNU-C1 cells; experiment: Proliferation assay (MTS), SNU-C1; format: cell-based; settings: 72 h; wild type K-Ras
Experimental: (§3) (A) A panel of wild-type (WT) or oncogenic mutant (Mut) K-Ras-expressing tumor cells were seeded in 96-well plates and treated for 72 h with vehicle (DMSO) or various concentrations of fendiline. […] The graphs show relative mean numbers of viable cells±SEMs from 3 independent experiments. Cell lines expressing oncogenic mutant K-Ras are shown in red, and cell lines that express wild-type K-Ras are shown in black. NCI H1299 cells (shown in blue) express wild-type K-Ras but mutant N-Ras. CaCO-2 cells (shown in green) overexpress wild-type K-Ras. (B) K-Ras levels in whole-cell lysates of SNU-C1, CaCO-2, and SK-CO-1 cells were quantified by Western blotting. The graphs show means±SEMs for 3 isolates of each cell line (indicated as 1, 2, and 3). K-Ras expression was normalized to the SNU-C1 sample.
(§4) After 24 h, fresh growth medium supplemented with 1% vehicle (DMSO), various concentrations of fendiline, or U0126 was added and cells were grown for 48 h or 72 h.

[7] = tested on: tumor cell lines expressing oncogenic mutant or wild-type K-Ras; experiment: Proliferation assay (MTS), panel of pancreatic, endometrial, lung and colon tumor cell lines; format: cell-based; settings: 72 h, various concentrations
Experimental: as §3, §4

[8] = tested on: CaCO-2 colon cancer cell line; experiment: Proliferation assay (MTS), CaCO-2; format: cell-based; settings: 72 h; wild type K-Ras, overexpressed
Experimental: as §3, §4

[9] = tested on: K-Ras-transformed Hec1A cells; experiment: Proliferation assay (MTS), Hec-1a, fendiline versus U0126; settings: 48 h, single dose of fendiline, U0126 renewed every 24 h
Experimental: The number of viable cells was quantified (absorbance at 490 nm) using the CellTiter 96 AQueous One Solution cell proliferation assay kit (Promega). […] Cell numbers were normalized to the corresponding vehicle-treated control. Statistical significance was calculated using Student's t test (*, P<0.05). […] Cell numbers were quantified using the CellTiter 96 AQueous One Solution cell proliferation assay (MTS) (Promega), according to the manufacturer's protocol.

T1 sequence (P01112 166-189 limits assumed): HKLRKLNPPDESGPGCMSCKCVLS

N#CC(=C(/N)Sc1ccccc1N)/C(C#N)=C(\N)Sc1ccccc1N [U0126]
inhibition of MAPK activation (pERK levels), relative potency [1]: much more potent than fendiline

CSCC[C@H](NC(=O)c1ccc(NC[C@@H](N)CS)cc1-c1ccccc1)C(=O)O [FTI-276]
localization of GFP-CTH ([2]; 10 μM FTI-276, MDCK): causes cytoplasmic localization of GFP-CTH

CN[C@@H]1C[C@H]2O[C@@](C)([C@@H]1OC)n1c3ccccc3c3c4c(c5c6ccccc6n2c5c31)C(=O)N[C@@H]4O [UCN-01]
localization of GFP-CTK [3]: causes mislocalization of both GFP-CTK and GFP-CTH | localization of GFP-CTH ([2]; 250 ng/mL UCN-01, MDCK): causes mislocalization of both GFP-CTK and GFP-CTH

C[C@H](CCC(=O)O)C[C@H](C)C[C@H](C)C(=O)/C=C(\O)[C@H](C)C[C@H](C)C/C=C/[C@@H](C)[C@@H](O)[C@@H](C)[C@@H](O)C[C@@H]1CC[C@@](C)([C@H]2CC[C@@](C)([C@@H](C)O)O2)O1 [Ionomycin, ionomycin]
localization of Ras proteins (fractionation) ([4]; ionomycin 1 μM, GFP-K-rasG12V or GFP-H-rasG12V): did not significantly alter the localization of Ras proteins | effect on Ras signaling [5]: None of the other Ca^2+ channel blockers tested or ionomycin had any effect on Ras signaling

COc1ccc([C@@H]2Sc3ccccc3N(CCN(C)C)C(=O)[C@@H]2OC(C)=O)cc1 [diltiazem]
localization of GFP-K-rasG12V (fractionation) ([4]; other Ca2+ channel blockers, 10 μM): None of the other Ca^2+ channel blockers altered the localization of GFP-K-rasG12V

CC(NCCC(c1ccccc1)c1ccccc1)c1ccccc1 (centres unmarked) [fendiline, 3,3-diphenyl-N-(1-phenylethyl)propan-1-amine]
inhibition of proliferation of SNU-C1 [6]: unresponsive | inhibition of proliferation, oncogenic mutant versus wild-type K-Ras tumor cells [7]: more potently inhibited the proliferation of tumor cells that express oncogenic mutant K-Ras than tumor cells that express wild-type K-Ras | inhibition of proliferation of CaCO-2 [8]: potently inhibited | inhibition of cell proliferation, relative potency [9]: significantly more potent than U0126
